Measurements from patent US20250115654A1, “PHARMACEUTICAL COMPOSITION OF GLP-1 RECEPTOR AND GIP RECEPTOR DUAL AGONIST, AND USE THEREOF” (FUJIAN SHENGDI PHARMACEUTICAL CO., LTD., priority 2021, published 2025).
Numbered stars: 1 amine (or outer) side, 2 acyl side, 3 side chain; on linkers, the order of the positions; unused ones are H or OH. Square brackets hold non-standard residues; d marks the D form. Side chains are listed from the residue outwards. Peptide text beside a SMILES is read from it. * marks the point of attachment. C20 diacid = O=C(O)CCCCCCCCCCCCCCCCCCC(=O)*; γGlu = O=C(O)[C@H](CCC(=O)[*:2])N[*:1]; AEEA = NCCOCCOCC(=O)O; Aib = CC(C)(N)C(=O)O

System: diet-induced-obesity mice
Experiment: Viscera/brain ratio for fat mass in different parts of diet-induced obesity mice
Format: in vivo, C57BL/6 mice
Description: High-fat food-induced-obesity male C57BL/6 mice (weighing 35-55 g, aged 10-12 weeks, purchased from Shanghai Jiesijie Laboratory Animal Co., Ltd.) were tested. […] According to the experimental design, the body weight of each mouse was measured and recorded on day 0, day 3, day 6, and so on to day 27, the average body weight of each group of mice was calculated, and body weight change curves were plotted by taking the body weight on the first day as the standard. At the end, the fat and other visceral organs of each part of the mice were taken out and weighed, and the viscera/brain ratio for fat in each part of each mouse was calculated. The effect of the drug on the fat was determined by comparing the change in the viscera/brain ratio for fat of different parts of each group of mice.

CC[C@H](C)[C@H](NC(=O)[C@H](CCCCN)NC(=O)[C@H](CCC(=O)O)NC(=O)[C@H](CCCCNC(=O)COCCOCCNC(=O)COCCOCCNC(=O)CC[C@H](NC(=O)CCCCCCCCCCCCCCCCCCC(=O)O)C(=O)O)NC(=O)[C@H](Cc1ccc(O)cc1)NC(=O)[C@@H](NC(=O)[C@H](CO)NC(=O)[C@H](Cc1ccc(O)cc1)NC(=O)[C@H](CC(=O)O)NC(=O)[C@H](CO)NC(=O)[C@@H](NC(=O)[C@H](Cc1ccccc1)NC(=O)[C@@H](NC(=O)CNC(=O)[C@H](CCC(=O)O)NC(=O)C(C)(C)NC(=O)[C@@H](N)Cc1ccc(O)cc1)[C@@H](C)O)[C@@H](C)O)[C@@H](C)CC)C(=O)N[C@@H](C)C(=O)N[C@@H](C)C(=O)N[C@@H](CCC(N)=O)C(=O)N[C@@H](CCC(=O)O)C(=O)N[C@@H](Cc1ccccc1)C(=O)N[C@H](C(=O)N[C@@H](CC(N)=O)C(=O)N[C@@H](Cc1c[nH]c2ccccc12)C(=O)N[C@@H](CC(C)C)C(=O)N[C@@H](CC(C)C)C(=O)N[C@@H](C)C(=O)NCC(=O)NCC(=O)N1CCC[C@H]1C(=O)N[C@@H](CO)C(=O)N[C@@H](CO)C(=O)NCC(=O)N[C@@H](C)C(=O)N1CCC[C@H]1C(=O)N1CCC[C@H]1C(=O)N1CCC[C@H]1C(=O)N[C@@H](CO)C(N)=O)C(C)C [Compound 18#] (H-Y[Aib]EGTFTSDYSIYK([AEEA-AEEA-γGlu-C20 diacid])EKIAAQEFVNWLLAGGPSSGAPPPS-NH2)
viscera/brain ratio, Epididymal fat (3 nmol/kg): 254.6 ± 113.4 %
viscera/brain ratio, Inguinal fat (3 nmol/kg): 281.5 ± 140.1 %
viscera/brain ratio, Mesenteric fat (3 nmol/kg): 84.8 ± 41.3 %
viscera/brain ratio, Perirenal fat (3 nmol/kg): 159.2 ± 87.6 %
viscera/brain ratio, Scapular fat (3 nmol/kg): 48 ± 15.3%
viscera/brain ratio, Subcutaneous fat (3 nmol/kg): 120 ± 62 %
viscera/brain ratio, Epididymal fat (10 nmol/kg): 211.7 ± 80.7 %
viscera/brain ratio, Inguinal fat (10 nmol/kg): 194.4 ± 86.2 %
viscera/brain ratio, Mesenteric fat (10 nmol/kg): 53.3 ± 14.6 %
viscera/brain ratio, Perirenal fat (10 nmol/kg): 109.4 ± 57.1 %
viscera/brain ratio, Scapular fat (10 nmol/kg): 42.5 ± 17^ %
viscera/brain ratio, Subcutaneous fat (10 nmol/kg): 122 ± 73.2 %
viscera/brain ratio, Epididymal fat (100 nmol/kg): 102.9 ± 32.2 %
viscera/brain ratio, Inguinal fat (100 nmol/kg): 92 ± 34.5 %
viscera/brain ratio, Mesenteric fat (100 nmol/kg): 27.4 ± 11.1 %
viscera/brain ratio, Perirenal fat (100 nmol/kg): 46.6 ± 18.2 %
viscera/brain ratio, Scapular fat (100 nmol/kg): 32.3 ± 7%
viscera/brain ratio, Subcutaneous fat (100 nmol/kg): 57.1 ± 21.2 %
content of fat of each part (except scapular fat) relative to placebo group (all dose test groups): significantly reduced
